Experimental data as given in EPA's ToxRefDB 2.

Tests used:
rat [1] = details: Developmental neurotoxicity study, sprague dawley, Oral, Gavage/Intubation, dose end: 97 PND, group: cannot be grouped
rat [2] = details: Subchronic oral toxicity in rodents, sprague dawley, Gavage/Intubation, dose end: 12 week, group: systemic, systemic / clinical chemistry / alkaline phosphatase (alp/alk) / alkaline phosphatase (alp/alk) + systemic / clinical chemistry / albumin / …
rat [3] = details: Prenatal developmental toxicity study; wistar; Oral; Gavage/Intubation; dose end: 15 GD; group: developmental; developmental / developmental malformation / bone / incomplete ossification + developmental / developmental malformation / bone / …
rat [4] = details: Subchronic oral toxicity in rodents, sprague dawley, Gavage/Intubation, dose end: 13 week, group: systemic
rat [5] = details: Prenatal developmental toxicity study, sprague dawley, Injection, Subcutaneous, dose end: 8 GD
mouse = details: Sub-acute repeat dose toxicity, other, Oral, Gavage/Intubation, dose end: 21 day, group: systemic
rat [6] = details: Prenatal developmental toxicity study, wistar, Dermal, Topical, dose end: 16 GD
rat [7] = details: Developmental neurotoxicity study; sprague dawley; Oral; Gavage/Intubation; dose end: 90 PND; group: cannot be grouped; developmental / developmental landmark / eye opening / eye opening + reproductive / offspring survival early / dead fetuses / dead fetuses…
rabbit = details: Prenatal developmental toxicity study, new zealand white, Dermal, Topical, dose end: 19 GD
[8] = systemic / in life observation / body weight / offspring (pup) weight gain
[9] = systemic / clinical chemistry / alkaline phosphatase (alp/alk) / alkaline phosphatase (alp/alk) + systemic / hematology / erythrocyte (rbc) …
[10] = group: developmental, developmental / developmental malformation / general / crown-rump length + systemic / in life observation / body weight / fetal weight
[11] = group: maternal, reproductive / reproductive performance / resorptions / resorptions + systemic / in life observation / body weight / body weight + systemic…
[12] = systemic / clinical chemistry / alkaline phosphatase (alp/alk) / alkaline phosphatase (alp/alk) + systemic / pathology microscopic / bone / …
[13] = systemic / hematology / hematocrit (hct) / hematocrit (hct) + systemic / hematology / hemoglobin (hgb) / hemoglobin (hgb)
[14] = group: developmental, developmental / developmental malformation / bone / supernumerary + systemic / in life observation / body weight / fetal weight
[15] = group: maternal, systemic / in life observation / body weight / body weight + systemic / in life observation / body weight / body weight gain + systemic / in…
[16] = group: maternal, systemic / in life observation / clinical signs / [other] + systemic / in life observation / clinical signs / erythema + systemic / in life …
[17] = group: developmental, systemic / in life observation / body weight / fetal weight

`CC1=C(/C=C/C(C)=C/C=C/C(C)=C/C(=O)O)C(C)(C)CCC1` [trans-Retinoic acid] was tested, and the LOAEL (rat [1]; [8]) was greater than 6 mg/kg/day, the NOAEL (rat [1]; [8]) was no less than 6 mg/kg/day and the LEL (rat [1]; systemic / in life observation / clinical signs / impaired foot spread) was 2.5 mg/kg/day. The LEL (rat [2]) was 0.5 mg/kg/day, the LOAEL (rat [2]) was greater than 5 mg/kg/day and the NEL (rat [2]) was less than 0.5 mg/kg/day. For the same compound, the NOAEL (rat [2]) was no less than 5 mg/kg/day, the LEL (rat [3]) was 5 mg/kg/day and the LOAEL (rat [3]) was greater than 10 mg/kg/day. The NEL (rat [3]) was 2.5 mg/kg/day, the NOAEL (rat [3]) was no less than 10 mg/kg/day and the LOAEL (rat [4]; [9]) was greater than 50 mg/kg/day. It also gave an NEL (rat [4]; [9]) of 1 mg/kg/day, an NOAEL (rat [4]; [9]) of no less than 50 mg/kg/day and an LEL (rat [4]; systemic / clinical chemistry / alkaline phosphatase (alp/alk) / alkaline phosphatase (alp/alk) + systemic / pathology microscopic / lymph …) of 4 mg/kg/day. It also gave an LEL (rat [5]; [10]) of 48.1 mg/kg/day, an LOAEL (rat [5]; [10]) greater than 144 mg/kg/day and an NEL (rat [5]; [10]) of 24 mg/kg/day. The NOAEL (rat [5]; [10]) was no less than 144 mg/kg/day, the LOAEL (rat [5]; [11]) was greater than 144 mg/kg/day and the NEL (rat [5]; [11]) was 48.1 mg/kg/day. The NOAEL (rat [5]; [11]) was no less than 144 mg/kg/day, the LEL (rat [5]; group: maternal, systemic / in life observation / body weight / body weight + systemic / in life observation / clinical signs / abnormal gait + systemic / in…) was 96.1 mg/kg/day and the LOAEL (mouse; [12]) was greater than 100 mg/kg/day. The NOAEL (mouse; [12]) was no less than 100 mg/kg/day, the LEL (mouse; [13]) was 3 mg/kg/day and the NEL (mouse; [13]) was less than 3 mg/kg/day. It also gave an LEL (rat [6]; group: developmental, developmental / developmental malformation / bone / supernumerary) of 2.5 mg/kg/day, an LOAEL (rat [6]; [14]) greater than 20 mg/kg/day and an NEL (rat [6]; [14]) of 1 mg/kg/day. The NOAEL (rat [6]; [14]) was no less than 20 mg/kg/day, the LOAEL (rat [6]; [15]) was greater than 20 mg/kg/day and the NOAEL (rat [6]; [15]) was no less than 20 mg/kg/day. For the same compound, the LEL (rat [6]; [16]) was 1 mg/kg/day, the NEL (rat [6]; [16]) was less than 1 mg/kg/day and the LEL (rat [7]) was 2.5 mg/kg/day. The LOAEL (rat [7]) was greater than 2.5 mg/kg/day, the NEL (rat [7]) was less than 2.5 mg/kg/day and the NOAEL (rat [7]) was no less than 2.5 mg/kg/day. For the same compound, the LEL (rabbit; [17]) was 0.5 mg/kg/day, the LOAEL (rabbit; [17]) was greater than 0.5 mg/kg/day and the NEL (rabbit; [17]) was 0.05 mg/kg/day. It also gave an NOAEL (rabbit; [17]) of no less than 0.5 mg/kg/day, an LEL (rabbit; [15]) of 0.05 mg/kg/day and an LOAEL (rabbit; [15]) greater than 0.5 mg/kg/day. It also gave an NEL (rabbit; [15]) of less than 0.05 mg/kg/day and an NOAEL (rabbit; [15]) of no less than 0.5 mg/kg/day.
